# Results from ChEMBL document CHEMBL4411306, “High-throughput screening of novel pyruvate dehydrogenase kinases inhibitors and biological evaluation of their in vitro and in vivo antiproliferative activity” (Eur J Med Chem, 2019).
# The source made the active and inactive calls. The calls are words filed in the database; no cut-off is given here.
# What was measured:
# [1] = biological target: T1, [Pyruvate dehydrogenase (acetyl-transferring)] kinase isozyme 2, mitochondrial (Homo sapiens, UniProt Q15119); test: Inhibition of recombinant human His6-tagged N-terminal PDHK2 (A8 to T399 residues) expressed in baculovirus expression system using PDC as substrate incubated for 10 mins followed by ATP addition measured at 12 secs interval for 20 mins
# [2] = Permeability across human Caco2 cells by liquid scintillation counting method; format: ADME, cell-based; details: caco-2
# [3] = biological target: [Pyruvate dehydrogenase (acetyl-transferring)] kinase isozyme 3, mitochondrial (Homo sapiens, UniProt Q15120); test: Inhibition of recombinant human His-tagged PDK3 expressed in Escherichia coli using PDH E1 as substrate measured after 30 mins by Kinase-Glo luminescence assay
# HepG2 = test: Antiproliferative activity against human HepG2 cells assessed as reduction in cell viability after 72 hrs by MTT assay; format: functional
# [4] = Antiproliferative activity against human BEAS2B cells assessed as reduction in cell viability after 72 hrs by MTT assay; format: cell-based; details: BEAS-2B cells, read-out: GC50
# NCI-H1650 = test: Antiproliferative activity against human NCI-H1650 cells assessed as reduction in cell viability after 72 hrs by MTT assay; format: functional
# Heat shock protein HSP90 = Heat shock protein HSP90 (Homo sapiens, UniProt P07900+P08238); test: Inhibition of human HSP90 measured after 30 mins by fluorescence polarization assay; format: protein assay
# [5] = Inhibition of porcine PDK assessed as activation of pyruvate dehydrogenase complex measured after 3 mins; parameters: species or system Sus scrofa
# NCI-H1975 [6] = test: Antiproliferative activity against human NCI-H1975 cells assessed as reduction in cell viability after 72 hrs by MTT assay; format: functional
# Mus musculus = test: In-vivo of inhibition of PDH phosphorylation in tumor of nude mouse xenografted with human NCI-H1975 cells at 10 to 20 mg/kg, po administered once daily for 21 days measured post last dose by Western blot analysis; format: functional, organism-based
# [7] = biological target: T2, [Pyruvate dehydrogenase (acetyl-transferring)] kinase isozyme 1, mitochondrial (Homo sapiens, UniProt Q15118); test: Inhibition of PDK1 in human NCI-H1975 cells assessed as switch of pyruvate metabolism from lactate production to oxidative phosphorylation by measuring decrease in extracellular acidification rate at 1 to 10 uM measured after 4 hrs by XFe24 extracellular flux analyzer based assay; format: cell-based
# NCI-H1975 [8] = test: Induction of apoptosis in human NCI-H1975 cells assessed as necrotic cells at 0.5 uM after 12 hrs by Annexin V-FITC/propidium iodide staining based flow cytometry (reference value: 1.8%); format: functional
# NCI-H1975 [9] = test: Induction of apoptosis in human NCI-H1975 cells assessed as necrotic cells at 4 uM after 12 hrs by Annexin V-FITC/propidium iodide staining based flow cytometry (reference value: 1.8%); format: functional
# [10] = biological target: T2, [Pyruvate dehydrogenase (acetyl-transferring)] kinase isozyme 1, mitochondrial; test: Inhibition of PDK1 in human NCI-H1975 cells assessed as switch of pyruvate metabolism from lactate production to oxidative phosphorylation by measuring increase in oxygen consumption rates at 1 to 10 uM measured after 4 hrs by XFe24 extracellular flux analyzer based assay; format: cell-based
# [11] = biological target: [Pyruvate dehydrogenase (acetyl-transferring)] kinase isozyme 4, mitochondrial (Homo sapiens, UniProt Q16654); test: Inhibition of recombinant human His-tagged PDK4 expressed in Escherichia coli using PDH E1 as substrate measured after 30 mins by Kinase-Glo luminescence assay
# NCI-H1975 [12] = test: Induction of apoptosis in human NCI-H1975 cells assessed as necrotic cells at 2 uM after 12 hrs by Annexin V-FITC/propidium iodide staining based flow cytometry (reference value: 1.8%); format: functional
# [13] = biological target: T2, [Pyruvate dehydrogenase (acetyl-transferring)] kinase isozyme 1, mitochondrial; test: Binding affinity to recombinant human His-tagged PDK1 expressed in Escherichia coli by isothermal calorimetry
# [14] = biological target: T2, [Pyruvate dehydrogenase (acetyl-transferring)] kinase isozyme 1, mitochondrial; test: Inhibition of PDK1 in human NCI-H1975 cells assessed as switch of pyruvate metabolism from lactate production to oxidative phosphorylation by measuring increase in ROS production at high concentration after 4 hrs by DCFH-DA dye based assay; format: cell-based
# NCI-H1975 [15] = test: Induction of apoptosis in human NCI-H1975 cells assessed as late apoptotic cells at 0.5 uM after 12 hrs by Annexin V-FITC/propidium iodide staining based flow cytometry (reference value: 3.7%); format: functional
# NCI-H1975 [16] = test: Induction of apoptosis in human NCI-H1975 cells assessed as live cells at 10 uM after 12 hrs by Annexin V-FITC/propidium iodide staining based flow cytometry (reference value: 92.7%); format: functional
# HCT-116 = test: Antiproliferative activity against human HCT116 cells assessed as reduction in cell viability after 72 hrs by MTT assay; format: functional
# NCI-H1975 [17] = test: Induction of apoptosis in human NCI-H1975 cells assessed as early apoptotic cells at 0.5 uM after 12 hrs by Annexin V-FITC/propidium iodide staining based flow cytometry (reference value: 1.8%); format: functional
# NCI-H1975 [18] = test: Induction of apoptosis in human NCI-H1975 cells assessed as live cells at 0.5 uM after 12 hrs by Annexin V-FITC/propidium iodide staining based flow cytometry (reference value: 92.7%); format: functional
# NCI-H1975 [19] = test: Inhibition of PDK in human NCI-H1975 cells assessed as reduction in PDH phosphorylation at 10 uM after 12 hrs by Western blot analysis; format: cell-based
# NCI-H1975 [20] = test: Induction of apoptosis in human NCI-H1975 cells assessed as late apoptotic cells at 2 uM after 12 hrs by Annexin V-FITC/propidium iodide staining based flow cytometry (reference value: 3.7%); format: functional
# A549 = test: Antiproliferative activity against human A549 cells assessed as reduction in cell viability after 72 hrs by MTT assay; format: functional
# NCI-H1975 [21] = test: Antitumor activity against human NCI-H1975 cells xenografted in nude mouse assessed as tumor growth inhibition administered orally once daily for 21 days; format: functional, cell-based
# MCF7 = test: Antiproliferative activity against human MCF7 cells assessed as reduction in cell viability after 72 hrs by MTT assay; format: functional
# NCI-H1975 [22] = test: Induction of apoptosis in human NCI-H1975 cells assessed as necrotic cells at 10 uM after 12 hrs by Annexin V-FITC/propidium iodide staining based flow cytometry (reference value: 1.8%); format: functional
# [23] = biological target: T2, [Pyruvate dehydrogenase (acetyl-transferring)] kinase isozyme 1, mitochondrial; test: Inhibition of PDK1 in human NCI-H1975 cells assessed as switch of pyruvate metabolism from lactate production to oxidative phosphorylation by measuring by measuring reduction in lactate formation at 10 uM measured after 4 hrs; format: cell-based
# NCI-H1975 [24] = test: Induction of apoptosis in human NCI-H1975 cells assessed as early apoptotic cells at 2 uM after 12 hrs by Annexin V-FITC/propidium iodide staining based flow cytometry (reference value: 1.8%); format: functional
# NCI-H1975 [25] = test: Induction of apoptosis in human NCI-H1975 cells assessed as live cells at 4 uM after 12 hrs by Annexin V-FITC/propidium iodide staining based flow cytometry (reference value: 92.7%); format: functional
# [26] = biological target: T1, [Pyruvate dehydrogenase (acetyl-transferring)] kinase isozyme 2, mitochondrial; test: Inhibition of recombinant human His-tagged PDK2 expressed in Escherichia coli using PDH E1 as substrate measured after 30 mins by Kinase-Glo luminescence assay
# NCI-H1975 [27] = test: Antitumor activity against human NCI-H1975 cells xenografted in nude mouse assessed as reduction in tumor weight administered orally once daily for 21 days; format: functional, cell-based
# NCI-H1975 [28] = test: Induction of apoptosis in human NCI-H1975 cells assessed as early apoptotic cells at 4 uM after 12 hrs by Annexin V-FITC/propidium iodide staining based flow cytometry (reference value: 1.8%); format: functional
# [29] = Toxicity in nude mouse xenografted with human NCI-H1975 cells assessed as effect on body weight at 10 to 20 mg/kg, po administered once daily for 21 days measured twice weekly during compound dosing; format: organism-based; details: in vivo, 504 h
# NCI-H1975 [30] = test: Induction of apoptosis in human NCI-H1975 cells after 12 hrs by Annexin V-FITC/propidium iodide staining based flow cytometry; format: functional, cell-based
# [31] = biological target: T2, [Pyruvate dehydrogenase (acetyl-transferring)] kinase isozyme 1, mitochondrial; test: Inhibition of recombinant human His-tagged PDK1 expressed in Escherichia coli using PDH E1 as substrate measured after 30 mins by Kinase-Glo luminescence assay
# NCI-H1975 [32] = test: Induction of apoptosis in human NCI-H1975 cells assessed as live cells at 2 uM after 12 hrs by Annexin V-FITC/propidium iodide staining based flow cytometry (reference value: 92.7%); format: functional
# A-375 = test: Antiproliferative activity against human A375 cells assessed as reduction in cell viability after 72 hrs by MTT assay; format: functional
# NCI-H1975 [33] = test: Induction of apoptosis in human NCI-H1975 cells assessed as early apoptotic cells at 10 uM after 12 hrs by Annexin V-FITC/propidium iodide staining based flow cytometry (reference value: 1.8%); format: functional
# NCI-H1975 [34] = test: Induction of apoptosis in human NCI-H1975 cells assessed as late apoptotic cells at 4 uM after 12 hrs by Annexin V-FITC/propidium iodide staining based flow cytometry (reference value: 3.7%); format: functional
# NCI-H1975 [35] = test: Induction of apoptosis in human NCI-H1975 cells assessed as late apoptotic cells at 10 uM after 12 hrs by Annexin V-FITC/propidium iodide staining based flow cytometry (reference value: 3.7%); format: functional
# T2 sequence (Q15118 whole entry): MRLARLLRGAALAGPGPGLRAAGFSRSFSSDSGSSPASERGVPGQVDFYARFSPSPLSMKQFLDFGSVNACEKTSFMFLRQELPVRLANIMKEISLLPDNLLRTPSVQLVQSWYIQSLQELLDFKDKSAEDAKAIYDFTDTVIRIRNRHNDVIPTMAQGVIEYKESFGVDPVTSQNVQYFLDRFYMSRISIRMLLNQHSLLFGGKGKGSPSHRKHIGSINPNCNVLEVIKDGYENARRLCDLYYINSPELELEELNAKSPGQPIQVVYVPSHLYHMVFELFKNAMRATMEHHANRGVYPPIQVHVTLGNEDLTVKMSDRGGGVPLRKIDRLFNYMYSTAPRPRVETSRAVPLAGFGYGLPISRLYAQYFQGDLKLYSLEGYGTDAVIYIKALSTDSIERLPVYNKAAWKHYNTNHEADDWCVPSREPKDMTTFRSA
# [Pyruvate dehydrogenase (acetyl-transferring)] kinase isozyme 4, mitochondrial, sequence (Q16654 whole entry): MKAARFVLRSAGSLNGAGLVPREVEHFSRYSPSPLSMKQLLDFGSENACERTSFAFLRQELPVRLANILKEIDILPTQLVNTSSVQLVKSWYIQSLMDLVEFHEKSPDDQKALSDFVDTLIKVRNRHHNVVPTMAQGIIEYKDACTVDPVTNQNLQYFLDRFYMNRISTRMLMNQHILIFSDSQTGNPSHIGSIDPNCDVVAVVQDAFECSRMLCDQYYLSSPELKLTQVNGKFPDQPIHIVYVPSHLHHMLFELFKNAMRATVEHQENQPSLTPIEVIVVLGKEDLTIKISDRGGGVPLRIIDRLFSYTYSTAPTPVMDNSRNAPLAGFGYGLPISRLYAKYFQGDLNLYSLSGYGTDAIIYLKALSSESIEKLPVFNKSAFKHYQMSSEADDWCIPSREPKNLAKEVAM
# [Pyruvate dehydrogenase (acetyl-transferring)] kinase isozyme 3, mitochondrial, sequence (Q15120 whole entry): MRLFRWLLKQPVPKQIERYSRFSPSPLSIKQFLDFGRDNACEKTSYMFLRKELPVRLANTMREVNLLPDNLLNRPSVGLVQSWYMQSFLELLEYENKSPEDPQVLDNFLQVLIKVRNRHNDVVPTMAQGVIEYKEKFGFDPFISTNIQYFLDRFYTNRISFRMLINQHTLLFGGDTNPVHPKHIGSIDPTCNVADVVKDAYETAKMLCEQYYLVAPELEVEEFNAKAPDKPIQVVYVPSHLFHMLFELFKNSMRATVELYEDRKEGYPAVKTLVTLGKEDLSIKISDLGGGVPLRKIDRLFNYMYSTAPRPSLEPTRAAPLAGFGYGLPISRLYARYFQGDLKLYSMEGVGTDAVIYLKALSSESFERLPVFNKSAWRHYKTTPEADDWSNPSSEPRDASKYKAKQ
smiles,measurement,setting,value
CC(C)c1ccc(COc2ccc(CC(=O)NCCN)cc2Cl)cc1,IC50,[1],2000 nM
Cc1cccc(NC(=O)CSc2n[nH]c(-c3ccccc3O)n2)c1C,Papp,[2],8.51 ×10⁻⁶ cm/s
same,IC50,[3],5700 nM
same,Activity,HepG2,Dose-dependent effect
same,GC50,HepG2,5200 nM
same,GI50 at 72 h,[4],> 20000 nM
same,Activity,NCI-H1650,Dose-dependent effect
same,GC50,NCI-H1650,3100 nM
same,IC50,Heat shock protein HSP90,780 nM
same,EC50,[5],340 nM
same,Activity,NCI-H1975 [6],Dose-dependent effect
same,GC50,NCI-H1975 [6],2300 nM
same,inhibition,Mus musculus,Active
same,inhibition,[7],Active
same,Activity,NCI-H1975 [8],0.9%
same,Activity,NCI-H1975 [9],1.2%
same,inhibition,[10],Active
same,IC50,[11],2500 nM
same,Activity,NCI-H1975 [12],1.6%
same,Kd,[13],870 nM
same,inhibition,[14],Active
same,Activity,NCI-H1975 [15],4.8%
same,Activity,NCI-H1975 [16],73.4%
same,Activity,HCT-116,Dose-dependent effect
same,GC50,HCT-116,12700 nM
same,Activity,NCI-H1975 [17],2%
same,Activity,NCI-H1975 [18],92.3%
same,reduction in PDH phosphorylation (qualitative),NCI-H1975 [19],Active
same,Activity,NCI-H1975 [20],5%
same,Activity,A549,Dose-dependent effect
same,GC50,A549,7900 nM
same,TGI,NCI-H1975 [21],Dose-dependent effect
same,Activity,MCF7,Dose-dependent effect
same,GC50,MCF7,9500 nM
same,Activity,NCI-H1975 [22],2.4%
same,inhibition,[23],Active
same,Activity,NCI-H1975 [24],3.1%
same,Activity,NCI-H1975 [25],85.5%
same,IC50,[26],3800 nM
same,Activity,NCI-H1975 [27],Dose-dependent effect
same,Activity,NCI-H1975 [28],2.7%
same,Activity,[29],Non-Toxic
same,Activity,NCI-H1975 [30],Dose-dependent effect
same,IC50,[31],290 nM
same,Activity,NCI-H1975 [32],90.3%
same,Activity,A-375,Dose-dependent effect
same,GC50,A-375,6400 nM
same,Activity,NCI-H1975 [33],13.1%
same,Activity,NCI-H1975 [34],10.6%
same,Activity,NCI-H1975 [35],11.1%
